Where two headings read alike, the source gives them in different places.
Experiments:
M4 muscarinic receptor = target: T1, M4 muscarinic receptor (Homo sapiens, UniProt P08173); test: Functional mobilization of intracellular calcium (FLIPR) in M4-CHO cells; format: cell-based; details: for Emax: read-out: M4 Efficacy
T1 construct: expressed in transfected cells; host or cells: CHO (M4-CHO)
T1 sequence (P08173 1-479): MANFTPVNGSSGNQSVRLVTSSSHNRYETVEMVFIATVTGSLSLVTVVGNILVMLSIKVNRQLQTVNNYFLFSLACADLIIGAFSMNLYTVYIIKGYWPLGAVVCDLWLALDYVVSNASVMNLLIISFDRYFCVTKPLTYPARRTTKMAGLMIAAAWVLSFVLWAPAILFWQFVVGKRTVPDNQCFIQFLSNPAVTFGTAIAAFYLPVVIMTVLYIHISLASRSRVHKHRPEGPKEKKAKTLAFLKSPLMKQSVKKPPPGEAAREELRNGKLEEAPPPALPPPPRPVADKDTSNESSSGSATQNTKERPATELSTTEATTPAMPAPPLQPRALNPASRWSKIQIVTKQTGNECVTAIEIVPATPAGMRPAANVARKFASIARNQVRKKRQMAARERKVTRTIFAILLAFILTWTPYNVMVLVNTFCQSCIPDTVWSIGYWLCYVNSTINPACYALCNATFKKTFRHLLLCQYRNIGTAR
Method in brief: (§1)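 Measured via Fluo-3 fluorescence on a FLIPR, CHO cells with either muscarinic subtype received compound in 0.5% DMSO. Antagonism was assessed after 15 min pre-incubation followed by carbachol at each subtype's EC80; agonism from compound addition alone.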

M1 muscarinic receptor = target: T2, M1 muscarinic receptor (Homo sapiens, UniProt P11229); test: Functional mobilization of intracellular calcium (FLIPR) in M1-CHO cells; format: cell-based; details: for Emax: read-out: M1 Efficacy
T2 construct: expressed in transfected cells; host or cells: CHO (M1-CHO)
T2 sequence (P11229 1-460): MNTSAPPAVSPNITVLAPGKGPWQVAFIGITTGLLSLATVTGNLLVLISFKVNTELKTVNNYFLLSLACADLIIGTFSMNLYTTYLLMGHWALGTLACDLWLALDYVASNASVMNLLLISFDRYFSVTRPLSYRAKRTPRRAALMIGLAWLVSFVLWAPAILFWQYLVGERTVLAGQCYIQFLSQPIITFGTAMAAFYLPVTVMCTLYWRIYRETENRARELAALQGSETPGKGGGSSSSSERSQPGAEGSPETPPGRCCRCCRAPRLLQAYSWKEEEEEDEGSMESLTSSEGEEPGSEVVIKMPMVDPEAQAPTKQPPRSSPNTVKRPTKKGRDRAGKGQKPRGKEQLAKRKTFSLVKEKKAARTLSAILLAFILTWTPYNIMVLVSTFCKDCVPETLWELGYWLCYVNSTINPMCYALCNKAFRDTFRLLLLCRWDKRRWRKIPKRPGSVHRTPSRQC
Method in brief: as §1

[1] = M4 receptor, calcium mobilization
[2] = M1 receptor, calcium mobilization
[3] = M4-CHO cells, calcium mobilization (FLIPR)
[4] = M1-CHO cells, calcium mobilization (FLIPR)

Structure (SMILES)	M4 Activity (M4 muscarinic receptor; [1])	Emax (M4 muscarinic receptor; [1]) [%]	M1 Activity (M1 muscarinic receptor; [2])	Emax (M1 muscarinic receptor; [2]) [%]	EC50 (M4 muscarinic receptor; [3]) [nM]	Emax (M4 muscarinic receptor; [3]) [%]	EC50 (M1 muscarinic receptor; [4]) [nM]	Emax (M1 muscarinic receptor; [4]) [%]
Cc1ccc2c(c1)C1(CCN(C3CC4CCC3C4)CC1)CN2 (centres unmarked) [compound 350]	xxx (activity was measured to be less than 0.1 μM)	> 85	xxx (activity was measured to be less than 0.1 μM)	> 85				
CCOC(=O)N1C2CCC1CC(N1CCC3(CC1)CNc1ccc(Cl)cc13)C2 (centres unmarked) [compound 351]	xx (activity was measured to be between 0.1 μM and 1.0 μM)	> 85	xxx (activity was measured to be less than 0.1 μM)	65 to 85				
CCOC(=O)N1CCC(N2CCC3(CC2)CNc2ccccc23)CC1 [compound 352]	x (activity was measured to be greater than 1.0 μM)	> 85	xxx (activity was measured to be less than 0.1 μM)	> 85				
CC#CCOC(=O)N1CCC(N2CCC3(CC2)CN(C(=O)N(C)C)c2ccc(F)cc23)CC1 [compound 353]	x (activity was measured to be greater than 1.0 μM)	65 to 85	xxx (activity was measured to be less than 0.1 μM)	> 85				
Cc1ccc2c(c1)C1(CCN(C3CC4CCC3C4)CC1)CN2S(=O)(=O)c1ccccc1 (centres unmarked) [compound 354]	x (activity was measured to be greater than 1.0 μM)	65 to 85	x (activity was measured to be greater than 1.0 μM)	65 to 85				
O=C(O[C@H]1CCOC1)N1C2CCC1CC(N1CCC3(CCc4ccccc43)CC1)C2 (some centres unmarked) [compound 355]	xx (activity was measured to be between 0.1 μM and 1.0 μM)	65 to 85	xx (activity was measured to be between 0.1 μM and 1.0 μM)	65 to 85				
CN([C@H]1CC2(CCN(C[C@H]3C[C@H]4CC[C@H]3C4)CC2)c2ccccc21)S(C)(=O)=O [compound 357]	x (activity was measured to be greater than 1.0 μM)	< 65	xx (activity was measured to be between 0.1 μM and 1.0 μM)	< 65				
CC(=O)N[C@H]1CC2(CCN(C3CCC[C@@H](C)C3)CC2)c2ccccc21 (some centres unmarked) [compound 358]	xx (activity was measured to be between 0.1 μM and 1.0 μM)	65 to 85	xxx (activity was measured to be less than 0.1 μM)	65 to 85				
CCOC(=O)N1C2CCC1CC(N1CCC3(CC1)C[C@H](NC(C)=O)c1ccccc13)C2 (some centres unmarked) [compound 359]	xx (activity was measured to be between 0.1 μM and 1.0 μM)	< 65	xx (activity was measured to be between 0.1 μM and 1.0 μM)	< 65				
CCCOC(=O)N1C2CCC1CC(N1CCC3(CC1)CN(C(=O)N(C)C)c1ccc(F)cc13)C2 (centres unmarked) [compound 360]	x (activity was measured to be greater than 1.0 μM)	< 65	xx (activity was measured to be between 0.1 μM and 1.0 μM)	65 to 85				
CC(C)OC(=O)N1C2CCC1CC(N1CCC3(CC1)CN(C(=O)O[C@@H]1CCOC1)c1ccc(F)cc13)C2 (some centres unmarked) [compound 361]	x (activity was measured to be greater than 1.0 μM)	< 65	xx (activity was measured to be between 0.1 μM and 1.0 μM)	< 65				
CCOC(=O)N1C2CCC1CC(N1CCC3(CC1)CN(C(=O)N(C)C)c1ccc(F)cc13)C2 (centres unmarked) [compound 362]	x (activity was measured to be greater than 1.0 μM)	< 65	xx (activity was measured to be between 0.1 μM and 1.0 μM)	65 to 85				
O=C(OCC1CCCO1)N1C2CCC1CC(N1CCC3(CC1)COc1ccc(F)cc13)C2 (centres unmarked) [compound 363]	x (activity was measured to be greater than 1.0 μM)	< 65	xx (activity was measured to be between 0.1 μM and 1.0 μM)	< 65				
C#CCOC(=O)N1CCC(CN2CCC3(CC2)C[C@H](NC(C)=O)c2ccccc23)CC1 [compound 364]	x (activity was measured to be greater than 1.0 μM)	< 65	xxx (activity was measured to be less than 0.1 μM)	> 85				
CCOC(=O)N1C2CCC1CC(N1CCC3(CCc4ccccc43)CC1)C2 (centres unmarked) [compound 365]	x (activity was measured to be greater than 1.0 μM)	< 65	xxx (activity was measured to be less than 0.1 μM)	65 to 85				
CC(=O)N1CC2(CCN(CC3CC4CCC3CC4)CC2)c2cc(F)ccc21 (centres unmarked) [compound 366]	x (activity was measured to be greater than 1.0 μM)	< 65	xx (activity was measured to be between 0.1 μM and 1.0 μM)	< 65				
CCC1CCC(N2CCC3(CC2)C[C@H](NC(C)=O)c2ccccc23)CC1 (some centres unmarked) [compound 367]	x (activity was measured to be greater than 1.0 μM)	< 65	x (activity was measured to be greater than 1.0 μM)	< 65				
CCOC(=O)N1C2CCC1CC(CN1CCC3(CC1)CNc1ccc(F)cc13)C2 (centres unmarked) [compound 368]	xx (activity was measured to be between 0.1 μM and 1.0 μM)	< 65	xxx (activity was measured to be less than 0.1 μM)	< 65				
Clc1ccc2c(c1)C1(CCO2)CCN([C@@H]2C[C@@H]3CC[C@H]2C3)CC1 [compound 369]	xx (activity was measured to be between 0.1 μM and 1.0 μM)	> 85	xxx (activity was measured to be less than 0.1 μM)	> 85				
CCOC(=O)N1CCC(N2CCC3(CC2)CN(C(=O)OCCF)c2ccc(F)cc23)CC1 [compound 370]	xx (activity was measured to be between 0.1 μM and 1.0 μM)	> 85	xxx (activity was measured to be less than 0.1 μM)	65 to 85				
CCOC(=O)N1C2CCC1CC(N1CCC3(CC1)CN(C(C)=O)c1ccc(F)cc13)C2 (centres unmarked) [compound 371]	x (activity was measured to be greater than 1.0 μM)	> 85	xxx (activity was measured to be less than 0.1 μM)	65 to 85				
Cc1ccc2c(c1)C1(CCN(CC3CC4CCC3O4)CC1)CN2 (centres unmarked) [compound 372]	xx (activity was measured to be between 0.1 μM and 1.0 μM)	> 85	xxx (activity was measured to be less than 0.1 μM)	65 to 85				
CCOC(=O)N1CCC(N2CCC3(CC2)CN(C(C)=O)c2ccc(-c4cccc(C#N)c4)cc23)CC1 [compound 373]	xx (activity was measured to be between 0.1 μM and 1.0 μM)	> 85	xxx (activity was measured to be less than 0.1 μM)	65 to 85				
COC(=O)N1CCC(N2CCC3(CC2)CN(C(C)=O)c2ccc(F)cc23)CC1 [compound 374]	x (activity was measured to be greater than 1.0 μM)	65 to 85	xx (activity was measured to be between 0.1 μM and 1.0 μM)	65 to 85				
c1ccc2c(c1)NCC21CCN(C2CCCCC2)CC1 [compound 375]					< 100	65 to 85	< 100	> 85
Fc1ccc2c(c1)C1(CCN(C[C@H]3C[C@H]4C=C[C@H]3C4)CC1)CO2 [compound 376]					> 1000	65 to 85	< 100	65 to 85
Fc1ccc2c(c1)C1(CCN(C3CC4CCC(C4)C3)CC1)CN2 (centres unmarked) [compound 377]					100 to 1000	65 to 85	< 100	65 to 85
COCCOC(=O)N1C2CCC1CC(N1CCC3(CC1)COc1ccc(F)cc13)C2 (centres unmarked) [compound 378]					> 1000	65 to 85	100 to 1000	65 to 85
O=C(C1CC1)N1CC2(CCN(C3CC4CCC(C3)N4C(=O)OC3CCC3)CC2)c2cc(F)ccc21 (centres unmarked) [compound 379]					100 to 1000	65 to 85	< 100	65 to 85

Source: patent US7786141B2 (Vertex Pharmaceuticals Incorporated, priority 2004, dated 2010)
